Test results as given in PMC9502896 (Nutrients, 2022).
Where “and” joins values, the source holds several entries; their conditions need not be identical. Equal values may be shown once. Read-outs that look alike come from different tables or passages of the source.

Tests used:
Aβ25–35 = molecular target: T1, Aβ25–35 (Homo sapiens, UniProt P05067); assay: Self Aβ25–35 aggregation assay (thioflavin-T fluorescence); assay type: biochemical; conditions: for decrease of Aβ25–35 self-aggregation compared to control: 100 μM compound, 24 h of incubation
T1 construct: amyloid β peptide 25–35 (Aβ25–35); purchased Sigma-Aldrich
Method: The Aβ25–35 self-aggregation assay was performed following the method described by Naldi et al.. First, peptide was pretreated with HFIP for 1 day at 22 °C to obtain non-amyloidogenic conformation. […] After incubation, the reaction mixture was supplemented with 0.025 mM thioflavin-T in 50 mM glycine–NaOH buffer (pH 8.5). The fluorescence emission was monitored at 490 nm with excitation at 446 nm using the Gemini XPS (Molecular Devices, Sunnyvale, CA, USA).

hMAO-B = molecular target: T2, hMAO-B (Homo sapiens, UniProt P27338); assay: In vitro hMAO inhibitory assay (luminometric), MAO-B; assay type: biochemical; conditions: 16 µM substrate, 0.5 µg enzyme, 25 °C, 1 h; read-out: hMAO-B IC50 (Mean ± SD)
T2 construct: purchased Sigma-Aldrich
T2 sequence (P27338 1-520): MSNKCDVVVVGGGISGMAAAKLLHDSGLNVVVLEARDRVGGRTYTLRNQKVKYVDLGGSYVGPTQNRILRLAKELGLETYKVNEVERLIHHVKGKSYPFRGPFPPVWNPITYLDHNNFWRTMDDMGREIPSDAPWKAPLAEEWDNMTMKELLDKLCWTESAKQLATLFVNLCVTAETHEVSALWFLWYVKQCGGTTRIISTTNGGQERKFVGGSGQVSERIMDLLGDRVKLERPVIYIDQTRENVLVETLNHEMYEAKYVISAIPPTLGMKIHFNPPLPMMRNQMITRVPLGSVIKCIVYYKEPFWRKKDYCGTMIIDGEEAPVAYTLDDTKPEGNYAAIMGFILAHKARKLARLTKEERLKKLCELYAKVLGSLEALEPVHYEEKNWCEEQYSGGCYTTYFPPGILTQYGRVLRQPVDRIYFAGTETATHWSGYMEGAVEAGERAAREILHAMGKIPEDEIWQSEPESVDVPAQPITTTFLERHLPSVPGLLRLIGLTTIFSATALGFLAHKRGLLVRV
Method: (§1) The inhibitory potential of the P. lobata-derived phytochemicals against MAO was evaluated through the luminometric method. Various doses of phytoestrogens in 0.1 M HEPES buffer (pH 7.5) with 5% 1,2,3-propanetriol for MAO-A and 5% 1,2,3-propanetriol and 10% dimethyl sulfoxide for MAO-B were mixed with the substrate (160 µM for MAO-A and 16 µM for MAO-B) and 0.5 µg of the enzyme and incubated at 25 °C. After 1 h incubation, reconstituted luciferin-detection reagent was added to the reaction mixture and incubated at 25 °C for 20 min. After that, luminescent signals were monitored using a microplate reader (Biotek, Winooski, VT, USA).
(§2) In addition, since factors such as organic solvents, metal ions (such as Cu^2+, Cd^2+, and Al^3+), pH, and temperature affect MAO activity, the assay was conducted in a well-controlled laboratory environment. The optimal conditions for the enzymatic reaction, including reaction time, temperature, pH, and the concentrations of the enzyme and substrate, were established based on the previous study. All the test samples were diluted in a reaction buffer containing 10% or less DMSO, and the solvent-control group was tested together for each assay to minimize false-positive/false-negative effects.

hMAO-A [1] = molecular target: T3, hMAO-A (Homo sapiens, UniProt P21397); assay: In vitro hMAO inhibitory assay (luminometric), MAO-A; assay type: biochemical
T3 construct: purchased Sigma-Aldrich
T3 sequence (P21397 1-527): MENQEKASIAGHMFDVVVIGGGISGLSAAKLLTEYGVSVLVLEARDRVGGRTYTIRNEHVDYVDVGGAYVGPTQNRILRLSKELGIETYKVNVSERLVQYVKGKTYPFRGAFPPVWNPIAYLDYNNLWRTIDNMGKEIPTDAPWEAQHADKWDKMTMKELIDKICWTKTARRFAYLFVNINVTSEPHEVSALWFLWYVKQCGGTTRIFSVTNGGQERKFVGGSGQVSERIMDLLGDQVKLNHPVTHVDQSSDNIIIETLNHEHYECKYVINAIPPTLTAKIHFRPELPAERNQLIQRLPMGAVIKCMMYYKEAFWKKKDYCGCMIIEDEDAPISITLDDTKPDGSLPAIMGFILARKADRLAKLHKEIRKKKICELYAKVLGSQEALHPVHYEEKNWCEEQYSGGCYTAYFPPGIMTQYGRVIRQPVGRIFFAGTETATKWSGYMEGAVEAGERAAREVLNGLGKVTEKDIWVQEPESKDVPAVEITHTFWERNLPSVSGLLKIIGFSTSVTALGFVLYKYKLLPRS
Method: as §1, §2

MAO-A = conditions: cited from earlier work
MAO-B = conditions: cited from earlier work
mouse astrocytes = system: mouse astrocytes; set-up: method as in PMID 21708076; conditions: nanomolar concentration; Aβ-induced cytotoxicity and inflammatory cytokine levels; cited from earlier work
hMAO-A [2] = molecular target: T3, hMAO-A; assay: Kinetic assay for hMAO-A (Lineweaver-Burk and secondary plots); assay type: biochemical
Method: The experimental method was the same as that used for the hMAO inhibitory assay; 0.5 µg of enzyme, 40–160 µM substrate and 0, 2.5, 10, and 20 µM coumestrol were used. A Lineweaver–Burk plot (LB plot) was generated using SigmaPlot 12.0 based on the results of the kinetic assay and secondary plots of the LB plot (LB-2nd plot) were generated using the exploratory EK macro module (Table S1).
The equation for the LB plot is as follows:(1) […]

β-secretase = system: β-secretase; set-up: method as in PMID 29597336; conditions: cited from earlier work
[3] = Screening active compound, 100 μM
[4] = 160 µM substrate, 0.5 µg enzyme, 25 °C, 1 h, read-out: hMAO-A IC50 (Mean ± SD)
[5] = substrate 40 μM, coumestrol 2.5 μM
[6] = substrate 40 μM, coumestrol 10 μM
[7] = substrate 40 μM, coumestrol 20 μM
[8] = substrate 80 μM, coumestrol 2.5 μM
[9] = substrate 80 μM, coumestrol 10 μM
[10] = substrate 80 μM, coumestrol 20 μM
[11] = substrate 160 μM, coumestrol 2.5 μM
[12] = substrate 160 μM, coumestrol 10 μM
[13] = substrate 160 μM, coumestrol 20 μM

O=c1c(-c2ccc(O)cc2)coc2cc(O)ccc12 [Daidzein]
decrease of Aβ25–35 self-aggregation compared to control (Aβ25–35): 35.54% | Fluorescence (Emission = 490 nm / Excitation = 446 nm), replicates 1-3 (Aβ25–35; [3]): 752.714 and 744.841 and 739.542

CC1OC(OCC2OC(Oc3c(-c4ccc(O)cc4)oc4cc(OC5OC(C)C(O)C(O)C5O)cc(O)c4c3=O)C(O)C(O)C2O)C(O)C(O)C1O (centres unmarked) [Robinin, kaempferol 3-O-robinoside-7-O-rhamnoside]
IC50 (hMAO-B): > 400 µM | IC50 (hMAO-A [1]; [4]): > 400 µM

CC1OC(OCC2OC(Oc3c(-c4ccc(O)cc4)oc4cc(O)cc(O)c4c3=O)C(O)C(O)C2O)C(O)C(O)C1O (centres unmarked) [Nicotiflorine]
IC50 (hMAO-B): > 400 µM | IC50 (hMAO-A [1]; [4]): > 400 µM

COc1c(CC=C(C)C)c(O)cc2oc(=O)c3c4ccc(O)cc4oc3c12 [glycyrol]
IC50 (MAO-A; read-out: activity against MAO-A (no activity below)): > 40 µM | IC50 (MAO-B; read-out: IC50 against MAO-B): 29.5 µM

CC1OC(OCC2OC(Oc3c(-c4ccc(O)cc4)oc4cc(O)cc(O)c4c3=O)C(O)C(O)C2O)C(O)C(O)C1O (centres unmarked) [Kaempferol-3-O-robinobioside]
IC50 (hMAO-B): > 400 µM | IC50 (hMAO-A [1]; [4]): > 400 µM

COc1cc(/C=C/C(=O)CC(=O)/C=C/c2ccc(O)c(OC)c2)ccc1O [Curcumin, curcumin, reference compound]
Fluorescence (Emission = 490 nm / Excitation = 446 nm), replicates 1-3 (Aβ25–35; Dose-dependent curves, 5 μM): 714.733 and 699.957 and 732.987 | Fluorescence (Emission = 490 nm / Excitation = 446 nm), replicates 1-3 (Aβ25–35; Dose-dependent curves, 10 μM): 659.3354 and 647.8281 and 645.7345 | Fluorescence (Emission = 490 nm / Excitation = 446 nm), replicates 1-3 (Aβ25–35; Dose-dependent curves, 20 μM): 508.323 and 494.704 and 529.05 | Fluorescence (Emission = 490 nm / Excitation = 446 nm), replicates 1-3 (Aβ25–35; Screening active compound, 20 μM): 446.557 and 456.907 and 436.435

CC1OC(OCC2OC(Oc3c(-c4ccc(O)c(O)c4)oc4cc(O)cc(O)c4c3=O)C(O)C(O)C2O)C(O)C(O)C1O (centres unmarked) [Quercetin-3-O-robinobioside]
IC50 (hMAO-B): > 400 µM | IC50 (hMAO-A [1]): > 400 µM

CC(C)=CCc1cc2c(cc1O)oc(=O)c1c3ccc(O)cc3oc21 [psoralidin]
inhibitory effect against MAO-A (MAO-A): did not show a significant inhibitory effect | inhibitory effect against MAO-B (MAO-B): did not show a significant inhibitory effect

O=c1c(-c2ccc(O)cc2)coc2cc(O[C@@H]3O[C@H](CO)[C@@H](O)[C@H](O)[C@H]3O)ccc12 [Daidzin]
IC50 (hMAO-B): > 400 µM | IC50 (hMAO-A [1]): > 400 µM

O=c1c(-c2ccc(O)cc2)coc2cc(O[C@@H]3O[C@H](CO)[C@@H](O)[C@H](O)[C@H]3O)cc(O)c12 [Genistin]
IC50 (hMAO-B): > 400 µM | IC50 (hMAO-A [1]; [4]): > 400 µM

C[C@@H]1O[C@@H](OC[C@H]2O[C@@H](Oc3c(-c4ccc(O)c(O)c4)oc4cc(O)cc(O)c4c3=O)[C@H](O)[C@@H](O)[C@@H]2O)[C@H](O)[C@H](O)[C@H]1O [Rutin]
decrease of Aβ25–35 self-aggregation compared to control (Aβ25–35): 49.31% | Fluorescence (Emission = 490 nm / Excitation = 446 nm), replicates 1-3 (Aβ25–35; [3]): 556.703 and 574.097 and 523.388 | IC50 (hMAO-B): > 400 µM | IC50 (hMAO-A [1]): 387 ± 4.63 µM | inhibitory activity against MAO-A (hMAO-A [1]): weak MAO-A inhibitory activity

O=c1oc2cc(O)ccc2c2oc3cc(O)ccc3c12 [Coumestrol]
decrease of Aβ25–35 self-aggregation compared to control (Aβ25–35): 76.14% | Fluorescence (Emission = 490 nm / Excitation = 446 nm), replicates 1-3 (Aβ25–35; Dose-dependent curves, 5 μM): 874.9012 and 872.4322 and 899.9266 | Fluorescence (Emission = 490 nm / Excitation = 446 nm), replicates 1-3 (Aβ25–35; Dose-dependent curves, 10 μM): 820.955 and 835.446 and 846.767 | Fluorescence (Emission = 490 nm / Excitation = 446 nm), replicates 1-3 (Aβ25–35; Dose-dependent curves, 20 μM): 725.8814 and 709.3678 and 704.8239 | Fluorescence (Emission = 490 nm / Excitation = 446 nm), replicates 1-3 (Aβ25–35; Dose-dependent curves, 50 μM): 578.864 and 549.001 and 576.214 | Fluorescence (Emission = 490 nm / Excitation = 446 nm), replicates 1-3 (Aβ25–35; Dose-dependent curves, 100 μM): 484.285 and 460.697 and 486.519 | Fluorescence (Emission = 490 nm / Excitation = 446 nm), replicates 1-3 (Aβ25–35; [3]): 420.995 and 408.908 and 418.89 | IC50 (Aβ25–35; thioflavin-T assay, read-out: IC50 for inhibition of Aβ25–35 self-aggregation): 37.4 ± 1.7 µM | neuroprotective effects in mouse astrocytes (mouse astrocytes): neuroprotective effects | IC50 (hMAO-B): 77.8 ± 2.1 µM | IC50 (hMAO-A [1]; [4]): 1.99 ± 0.68 µM | Inhibition Mode (hMAO-A [2]; 0.5 µg MAO-A, 40–160 µM substrate, 25 °C): Competitive | Inhibition Mode (hMAO-A [2]; 0.5 µg MAO-A, 40–160 µM substrate, 25 °C, listed as coumestrol): competitive inhibitor | Ki (hMAO-A [2]; 0.5 µg MAO-A, 40–160 µM substrate, 25 °C, secondary plots, read-out: Inhibition Constant (Ki)): 1.32 µM | 1/V Mean (hMAO-A [2]; [5]): 0.000734 1/(RLU/60min) | RLU Mean (hMAO-A [2]; [5]): 81783.67 RLU | 1/V Mean (hMAO-A [2]; [6]): 0.001642 1/(RLU/60min) | RLU Mean (hMAO-A [2]; [6]): 36716 RLU | 1/V Mean (hMAO-A [2]; [7]): 0.002945 1/(RLU/60min) | RLU Mean (hMAO-A [2]; [7]): 20374 RLU | 1/V Mean (hMAO-A [2]; [8]): 0.000475 1/(RLU/60min) | RLU Mean (hMAO-A [2]; [8]): 126374 RLU | 1/V Mean (hMAO-A [2]; [9]): 0.000938 1/(RLU/60min) | RLU Mean (hMAO-A [2]; [9]): 64010.67 RLU | 1/V Mean (hMAO-A [2]; [10]): 0.001597 1/(RLU/60min) | RLU Mean (hMAO-A [2]; [10]): 37649 RLU | 1/V Mean (hMAO-A [2]; [11]): 0.000261 1/(RLU/60min) | RLU Mean (hMAO-A [2]; [11]): 229959.3 RLU | 1/V Mean (hMAO-A [2]; [12]): 0.000495 1/(RLU/60min) | RLU Mean (hMAO-A [2]; [12]): 121308.7 RLU | 1/V Mean (hMAO-A [2]; [13]): 0.000797 1/(RLU/60min) | RLU Mean (hMAO-A [2]; [13]): 75572 RLU | in vitro inhibitory effect against β-secretase (β-secretase): in vitro inhibitory effect

O=c1c(-c2ccc(O)cc2)coc2cc(O)cc(O)c12 [Genistein]
decrease of Aβ25–35 self-aggregation compared to control (Aβ25–35): 34.90% | Fluorescence (Emission = 490 nm / Excitation = 446 nm), replicates 1-3 (Aβ25–35; [3]): 656.961 and 678.75 and 636.556
